Measurements taken from ChEMBL document CHEMBL1153951, “Partial regeneration of beta-cells in the islets of Langerhans by Nymphayol a sterol isolated from Nymphaea stellata (Willd.) flowers” (2009).
Activity calls are given as the source filed them. No cut-off for these calls is given here.

Key:
[1] = test system: Rattus norvegicus; assay: Antihyperglycemic activity in STZ-diabetic rat assessed as hyperplastic islet cells at 600 mg/kg, po after 45 days by histopathological study; assay type: functional, organism-based; set-up: dose 600 mg/kg
[2] = test system: Rattus norvegicus; assay: Antihyperglycemic activity in STZ-diabetic rat assessed as dilated islet cells at 600 ug/kg, po after 45 days by histopathological study; assay type: functional, organism-based
[3] = test system: Rattus norvegicus; assay: Antihyperglycemic activity in STZ-diabetic rat assessed as improvement in beta cell granulation at 50 mg/kg, po after 45 days by histopathological study; assay type: functional, organism-based; set-up: dose 50 mg/kg
[4] = test system: Rattus norvegicus; assay: Antihyperglycemic activity in STZ-diabetic rat assessed as potentiation of insulin secretion from existing beta cells at 50 mg/kg, po after 45 days; assay type: functional, organism-based; set-up: dose 50 mg/kg
[5] = test system: Rattus norvegicus; assay: Antihyperglycemic activity in STZ-diabetic rat assessed as expansion of islet cells at 50 mg/kg, po after 45 days by histopathological study; assay type: functional, organism-based; set-up: dose 50 mg/kg
[6] = test system: Rattus norvegicus; assay: Antihyperglycemic activity in po dosed STZ-diabetic rat assessed as insulin containing beta-cells by immunohistochemical study; assay type: functional, organism-based
[7] = test system: Rattus norvegicus; assay: Antihyperglycemic activity in STZ-diabetic rat assessed as dilated islet cells at 12.5 mg/kg, po after 45 days by histopathological study; assay type: functional, organism-based; set-up: dose 12.5 mg/kg
[8] = test system: Rattus norvegicus; assay: Antihyperglycemic activity in STZ-diabetic rat assessed as expansion of islet cells at 12.5 mg/kg, po after 45 days by histopathological study; assay type: functional, organism-based; set-up: dose 12.5 mg/kg
[9] = test system: Rattus norvegicus; assay: Antihyperglycemic activity in STZ-diabetic rat assessed as hyperplastic islet cells at 50 mg/kg, po after 45 days by histopathological study; assay type: functional, organism-based; set-up: dose 50 mg/kg
[10] = test system: Rattus norvegicus; assay: Antihyperglycemic activity in po dosed STZ-diabetic rat assessed as lowering of fasting plasma glucose level after 45 days by colorimetry; assay type: functional
[11] = test system: Rattus norvegicus; assay: Antihyperglycemic activity in STZ-diabetic rat assessed as expansion of islet cells at 25 mg/kg, po after 45 days by histopathological study; assay type: functional, organism-based; set-up: dose 25 mg/kg
[12] = test system: Rattus norvegicus; assay: Antihyperglycemic activity in STZ-diabetic rat assessed as dilated islet cells at 25 mg/kg, po after 45 days by histopathological study; assay type: functional, organism-based; set-up: dose 25 mg/kg

For `CCCC[C@@H](C)[C@H]1CC[C@H]2[C@@H]3CC=C4C[C@@H](O)CC[C@]4(C)[C@H]3CC[C@]12C` [NYMPHAYOL], the Activity [1] was “inactive”, the Activity [2] was “inactive” and the Activity [3] was “Active”. The Activity [4] was “Active”, the Activity [5] was “inactive” and the Activity [6] was “Active”. For the same compound, the Activity [7] was “Active”, the Activity [8] was “Active” and the Activity [9] was “inactive”. The Activity [10] was 78.05%, the Activity [11] was “inactive” and the Activity [12] was “inactive”.
